These results are taken from patent EP0745083B1, “2-HETEROARYL-5,11-DIHYDRO-6H-DIPYRIDO [3,2-b:2',3'-e][1,4]DIAZEPINES AND THEIR USE IN THE PREVENTION OR TREATMENT OF HIV INFECTION” (BOEHRINGER INGELHEIM PHARMACEUTICALS INC., priority 1994, dated 1995).

Test [1] relates to HTLV-IIIB strain of HIV-1. Description: Syncytia (human T-cell culture) assay. To be noted: Human immunodeficiency virus 1, IIIB, 96 h; c8166 cells; read four days after virus challenge. The class given is cell-based. As for the experimental part: In order to confirm that compounds which are active in the RT Assay also have the ability to inhibit HIV replication in a living system, compounds according to the invention were also tested in the human T-Cell Culture (Syncytia) Assay described below.
Formation of syncytia is a feature of in vitro cultures of CD4+ T-cells infected with HIV-1. In this assay, T-cells are treated with a putative replication inhibiting compound and then infected with HIV-1. After incubation, the culture is checked for the formation of syncytia. The absence or reduction in the number of syncytia is used as a measure of the test compound's ability to inhibit HIV replication.
The target cells, designated c8166, are a subclone of human lymphoma cells of T-cell origin and are established at an initial density of 5x10^4 per 100 ul in RPMI 1640 (+ 10% fetal bovine serum) culture medium in 96 well flat bottom plates. A selected amount of test compound, dissolved in DMSO, is included. After 24 hours, 50-100 TCID50's (the dose that results in induced effect in 50% of test cultures) of the HTLV-IIIB strain of HIV-1 (2) are inoculated into each culture. Control cultures receive compound or virus only. Four days after virus challenge, cultures are visually examined for the frequency and distribution of virus-induced giant cell syncytia. The percent inhibition by the test compound is determined by comparison with control values. Confirmation of the presence or absence of virus replication is accomplished by harvesting the cell free culture fluids from all experimental groups to determine the presence or absence of infectious progeny through the induction of syncytia formation in secondary human T-cell cultures after 3 days.

In test [2] the target is T1, HIV-1 RT wild type (WT) enzyme (Human immunodeficiency virus type 1 group M subtype B, UniProt P03367).
T1 construct: Reverse transcriptase enzyme from the LAV strain of Human Immunodeficiency Virus (HIV-1) (1) was isolated from the bacterial strain JM109; made in house; host or cells: E. coli JM109 (clone pBRTprt1+ in vector pIBI21, lac promoter)
The test is described as follows: Reverse Transcriptase (RT) Assay, wild type enzyme (RNA-dependent DNA polymerase activity). In kind it is biochemical, Human Immunodeficiency Virus (HIV-1). To be noted: 1 µM compound, read-out: Reverse Transciptase Assay % inhibition (1 µM) WT.

The IC50 is the concentration at which inhibition is half-maximal. In general, inhibition refers to the relative decrease from the control value, in per cent.

For `CN1C(=O)c2cccnc2N(C2CC2)c2nc(-c3cn[nH]c3)ccc21` [Example 6, 5,11-Dihydro-5-methyl-11-c-propyl-2-(4-pyrazolyl)-6H-dipyrido[3,2-b:2',3'-e][1,4]diazepin-6-one], the half-maximal inhibitory concentration (IC50) in test [1] is 10 nM. Besides, the inhibition at 1 µM in test [2] stood at 94%.

In turn, `CCN1c2ncccc2C(=O)N(C)c2ccc(-c3cn[nH]c3)nc21` [Example 1, 5,11-Dihydro-11-ethyl-5-methyl-2-(4-pyrazolyl)-6H-dipyrido[3,2-b:2'3'-e][1,4]diazepin-6-one] yielded a concentration for half-maximal inhibition (IC50) in test [1] of 40 nM. In addition, the inhibition at 1 µM in test [2] amounted to 97%.

As for `CCN1c2ncccc2C(=O)N(C)c2ccc(-c3cc[nH]c3)nc21` [Example 12, 5,11-Dihydro-11-ethyl-5-methyl-2-(3-pyrrolyl)-6H-dipyrido[3,2-b:2',3'-e][1,4]diazepin-6-one], the half-maximal inhibitory concentration (IC50) in test [1] was 40 nM. Also, the inhibition at 1 µM in test [2] amounted to 95%.

In test [1], `CN1C(=O)c2cccnc2N(C2CC2)c2nc(-c3cc[nH]c3)ccc21` [Example 25, 11-Cyclopropyl-5,11-dihydro-5-methyl-2-(3-pyrrolyl)-6H-dipyrido[3,2-b:2',3'-e][1,4]diazepin-6-one] showed an IC50 of 80000 nM. For the same compound, in test [2], the inhibition at 1 µM was 92%.
